These results are taken from BindingDB's records for doi:10.1021/jm970326r (University of Minnesota, 1998).

For assay [1], the target named is Sigma non-opioid intracellular receptor 1 (Cavia porcellus) (UniProt Q60492). Nature of the assay: Sigma-1 binding assay was done in guinea pig membranes by labeling the binding site with [3H](+)-pentazocine.
Assay [2] deals with Vesicular acetylcholine transporter (Torpedo). Nature of the assay: Binding to vesicular acetylcholine transporter of torpedo synaptic vesicles.
Assay [3] is described as follows: Sigma-1 binding assay was done in guinea pig membranes by labeling the binding site with [3H](+)-pentazocine.

The structures appear in SMILES notation.

Chain of Sigma non-opioid intracellular receptor 1 (Cavia porcellus) (Q60492 whole entry, looked up): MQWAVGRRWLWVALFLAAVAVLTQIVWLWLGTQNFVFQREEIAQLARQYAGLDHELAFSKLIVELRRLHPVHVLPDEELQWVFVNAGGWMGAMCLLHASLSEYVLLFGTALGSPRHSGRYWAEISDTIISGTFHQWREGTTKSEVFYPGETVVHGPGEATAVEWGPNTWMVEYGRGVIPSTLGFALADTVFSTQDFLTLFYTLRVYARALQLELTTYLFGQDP

With `O=C(CCCN1C2CCC1CC(c1ccccc1)C2)c1ccc(F)cc1` (stereo not given), affinity in assay [1] was put at a Ki of 0.0341 µM.
The molecule `OC(CN1C2CCC1CC(c1ccccc1)C2)c1c(Cl)cccc1Cl` (stereo not given) [1-(2,6-Dichloro-phenyl)-2-(3-phenyl-8-aza-bicyclo[3.2.1]oct-8-yl)-ethanol] showed a Ki in assay [1] of 0.302 µM.
Consider `OC(CN1C2CCC1CC(c1ccccc1)C2)c1ccccc1Br` (stereo not given) [1-(2-Bromo-phenyl)-2-(3-phenyl-8-aza-bicyclo[3.2.1]oct-8-yl)-ethanol], for which the Ki in assay [2] was 0.13 µM; in assay [3], 0.0957 µM.
For the molecule `OC(CN1C2CCC1CC(c1ccccc1)C2)c1ccc(Cl)c(Cl)c1` (stereo not given) [1-(3,4-Dichloro-phenyl)-2-(3-phenyl-8-aza-bicyclo[3.2.1]oct-8-yl)-ethanol], the values for the inhibition constant Ki in assay [2] and in assay [1] were 0.06 µM and 0.249 µM, respectively.
Molecule `OC(CN1C2CCC1CC(c1ccccc1)C2)c1cccc(Br)c1` (stereo not given) [1-(3-Bromo-phenyl)-2-(3-phenyl-8-aza-bicyclo[3.2.1]oct-8-yl)-ethanol] had a Ki in assay [1] of 0.117 µM.
As to `CN1CC2(CCN([C@@H]3CN(Cc4cccc(I)c4)CC[C@H]3O)CC2)c2ccccc21` [1-(3-Iodobenzyl)-3-[1-methylspiro[2,3-dihydro-1H-indole-3,4'-(hexahydropyridine)]-1-yl]-(3R,4R)-hexahydro-4-pyridinol], the inhibition constant (Ki) was 0.017 µM in assay [2] and 0.122 µM in assay [1].
Molecule `O[C@@H]1CCN(Cc2cccc(I)c2)C[C@H]1N1CCC2(CCc3ccccc32)CC1` [1-(3-iodobenzyl)-3-spiro[2,3-dihydro-1H-indene-1,4'-(hexahydropyridine)]-1-yl-(3R,4R)-hexahydro-4-pyridinol] registered a Ki in assay [1] of 0.283 µM.
As for `OC(CN1C2CCC1CC(c1ccccc1)C2)c1ccc(Br)cc1` (stereo not given) [1-(4-Bromo-phenyl)-2-(3-phenyl-8-aza-bicyclo[3.2.1]oct-8-yl)-ethanol], the Ki was found to be 0.144 µM in assay [2] and 0.0175 µM in assay [1].
As to `OC(CN1CCC(c2ccccc2)CC1)c1ccc(Br)cc1` (stereo not given) [1-(4-Bromo-phenyl)-2-(4-phenyl-piperidin-1-yl)-ethanol], the Ki in assay [2] amounted to 0.03 µM.
With `OC(Cc1ccc(Br)cc1)CN1C2CCC1CC(c1ccccc1)C2` (stereo not given) [1-(4-Bromo-phenyl)-3-(3-phenyl-8-aza-bicyclo[3.2.1]oct-8-yl)-propan-2-ol], the affinity in assay [1], expressed as Ki, was 0.0309 µM.
As for `O=C(CN1C2CCC1CC(c1ccccc1)C2)c1ccc(F)cc1` (stereo not given) [1-(4-Fluoro-phenyl)-2-(3-phenyl-8-aza-bicyclo[3.2.1]oct-8-yl)-ethanone], the Ki in assay [2] worked out at 3.4 µM; in assay [1], 0.281 µM.
Consider `OC(CCCN1C2CCC1CC(c1ccccc1)C2)c1ccc(F)cc1` (stereo not given) [1-(4-Fluoro-phenyl)-4-(3-phenyl-8-aza-bicyclo[3.2.1]oct-8-yl)-butan-1-ol], for which, in assay [2], the Ki is 0.38 µM.
On to `O[C@@H]1CCN(Cc2ccc(F)cc2)C[C@H]1N1CCC2(CCc3ccccc32)CC1` [1-(4-fluorobenzyl)-3-spiro[2,3-dihydro-1H-indene-1,4'-(hexahydropyridine)]-1-yl-(3R,4R)-hexahydro-4-pyridinol], for which the Ki came to 0.00036 µM in assay [2] and 0.025 µM in assay [1].
Turning to `CN1CC2(CCN(CCCC(=O)c3ccc(F)cc3)CC2)c2ccccc21` [1-(4-fluorophenyl)-4-[1-methylspiro[2,3-dihydro-1H-indole-3,4'-(hexahydropyridine)]-1-yl]-1-butanone], the Ki in assay [1] amounted to 0.11 µM.
In assay [1], `O=C(CCCN1CCC2(CCc3ccccc32)CC1)c1ccc(F)cc1` [1-(4-fluorophenyl)-4-spiro[2,3-dihydro-1H-indene-1,4'-(hexahydropyridine)]-1-yl-1-butanone] displayed a Ki of 0.0018 µM.
In turn, `OC(CN1C2CCC1CC(c1ccccc1)C2)c1ccccc1` (stereo not given) [1-Phenyl-2-(3-phenyl-8-aza-bicyclo[3.2.1]oct-8-yl)-ethanol] had a Ki in assay [2] of 0.474 µM.
Consider `O[C@@H]1Cc2ccccc2C[C@H]1N1CCC2(CCc3ccccc32)CC1` [3-spiro[2,3-dihydro-1H-indene-1,4'-(hexahydropyridine)]-1-yl-(2R,3R)-1,2,3,4-tetrahydro-2-naphthalenol], for which the Ki in assay [2] stood at 0.00036 µM.
On to `CN1CC2(CCN(C[C@H](O)c3cccc(Br)c3)CC2)c2ccccc21` [(1R)-1-(3-bromophenyl)-2-(1-methyl-1,2-dihydro-1'H-spiro[indole-3,4'-piperidin]-1'-yl)ethanol], for which the Ki was found to be 0.182 µM in assay [2] and 0.518 µM in assay [1].
The matching figures for `O[C@@H](CN1CCC2(CCc3ccccc32)CC1)c1cccc(Br)c1` [(1R)-1-(3-bromophenyl)-2-(2,3-dihydro-1'H-spiro[indene-1,4'-piperidin]-1'-yl)ethanol]: 0.6 µM and 0.107 µM.
The matching figures for `CN1CC2(CCN([C@@H]3CCCC[C@H]3O)CC2)c2ccccc21` [(1R,2R)-2-(1-methyl-1,2-dihydro-1'H-spiro[indole-3,4'-piperidin]-1'-yl)cyclohexanol]: 0.074 µM and 0.286 µM.
The corresponding values for `O[C@@H]1CCCC[C@H]1N1CCC2(CCc3ccccc32)CC1` [(1R,2R)-2-(2,3-dihydro-1'H-spiro[indene-1,4'-piperidin]-1'-yl)cyclohexanol] are 0.0076 µM and 0.021 µM.
As for `O[C@H]1CCCC[C@@H]1N1C2CCC1CC(c1ccccc1)C2` (stereo partly drawn) [(1S,2S)-2-(3-Phenyl-8-aza-bicyclo[3.2.1]oct-8-yl)-cyclohexanol], the affinity in assay [1] corresponds to a Ki of 0.38 µM.
Consider `CN1CC2(CCN(C[C@H](O)Cc3ccc(Br)cc3)CC2)c2ccccc21` [(2R)-1-(4-bromophenyl)-3-{1-methyl-1,2-dihydrospiro[indole-3,4'-piperidine]-1'-yl}propan-2-ol], for which the inhibitory constant (Ki) in assay [2] was 0.42 µM; in assay [1], 0.191 µM.
In assay [2], `O[C@H](Cc1ccc(Br)cc1)CN1CCC2(CCc3ccccc32)CC1` [(2R)-1-(4-bromophenyl)-3-{2,3-dihydrospiro[indene-1,4'-piperidine]-1'-yl}propan-2-ol] showed a Ki of 0.086 µM.
With `O[C@H]1Cc2ccccc2C[C@@H]1N1C2CCC1CC(c1ccccc1)C2` (stereo partly drawn) [(2S,3S)-3-(3-Phenyl-8-aza-bicyclo[3.2.1]oct-8-yl)-1,2,3,4-tetrahydro-naphthalen-2-ol], the results for the Ki in assay [2] and in assay [1] were 0.0085 µM and 0.175 µM, respectively.
Consider `O[C@H]1CCN(Cc2cccc(I)c2)C[C@@H]1N1C2CCC1CC(c1ccccc1)C2` (stereo partly drawn) [(3S,4S)-1-(3-Iodo-benzyl)-3-(3-phenyl-8-aza-bicyclo[3.2.1]oct-8-yl)-piperidin-4-ol], for which, in assay [1], the Ki amounted to 0.195 µM.
For the molecule `O[C@H]1CCN(Cc2ccc(F)cc2)C[C@@H]1N1C2CCC1CC(c1ccccc1)C2` (stereo partly drawn) [(3S,4S)-1-(4-Fluoro-benzyl)-3-(3-phenyl-8-aza-bicyclo[3.2.1]oct-8-yl)-piperidin-4-ol], the Ki in assay [2] worked out at 0.325 µM; in assay [1] it was 0.24 µM.

As a reminder, the Ki is a measure of affinity in units of concentration, obtained from inhibition or displacement.
